Common to all, as to assay type: cell-based
The test system of one experiment is IL-6 (THP-1 cells). The experiment in a line: IL-6 inhibition in LPS-stimulated THP-1 cells (HTRF). Conditions: Homo sapiens; for EC50: THP-1 cells, LPS 500 ng/mL, 22 hours, IL6 HTRF; for inhibition at 10 µM: given where EC50 >10 μM, THP-1, IL6, read-out: percent inhibition at 10 μM. In a few lines:
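THP-1 cells, pre-cultured 24 h in 1% FBS, were preincubated 2 h with compound over a 10-point 1:3 series from 10 μM (0.1% DMSO). They were then stimulated with 500 ng/mL LPS for 22 h at 37° C. IL-6 was read by HTRF 665/620 nm ratio, and EC50 was fitted by four-parameter regression against DMSO; above 10 μM, % inhibition at 10 μM is given.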

The test system of a further experiment is SW480 colon cancer cells. The experiment in a line: Cell viability assay (CellTiter-Blue). Conditions: Homo sapiens; for EC50: 96 h, SW480 cell viability, four days, CellTiter-Blue; for inhibition at 10 µM: given where EC50 >10 μM, SW480 viability, read-out: percent inhibition at 10 μM. The essentials:
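Resazurin reduction (Ex 560/Em 590 nm, ~3 h reagent incubation) served as the viability read-out after SW480 cells were treated for four days at 37 °C. Doses ran from 10 μM down to 0.0045 μM in eight 1:3 steps. Curves fitted non-linearly for EC50, else % inhibition at 10 μM reported.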

The test system of experiment [1] is primary human mesenchymal stem cells (hMSCs). The experiment in a line: Chondrogenesis induction in mesenchymal stem cells (nodule count). The following applies: 144 h, 6 days; for Emax: relative to TGF-β3 (10 ng/mL) positive control, read-out: Max. Activity as % TGF-β3 activity; for EC50: concentration required to induce 50% levels of chondrogenesis vs TGF-β3, read-out: Conc (nM) of 50% TGF-β3 activity. The procedure: Representative compounds were screened using primary human mesenchymal stem cells (hMSCs) to determine their ability to induce chondrogenesis (process by which cartilage is developed).
Human Mesenchymal Stem Cell Culture: Primary human mesenchymal stem cells (hMSCs) were purchased from Lonza (Walkersville, Md.) and expanded in Mesenchymal Stem Cell Growth Media (Lonza). Cells between passage 3 and 6 were used for the experiments.
Compound Screening: Each compound was dissolved in DMSO as a 10 mM stock and used to prepare compound source plates. Serial dilution (1:3, 6-point dose-response curves from 2700 nM to 10 nM) and compound transfer was performed using the ECHO 550 (Labcyte, Sunnyvale, Calif.) into 96-well clear bottom assay plates (Greiner Bio-One) with appropriate DMSO backfill for a final DMSO concentration of 0.03%. hMSCs were plated at 20,000 cells/well in 250 μL/well Incomplete Chondrogenic Induction Medium (Lonza; DMEM, dexamethasone, ascorbate, insulin-transferrin-selenium [ITS supplement], gentamycin-amphotericin [GA-1000], sodium pyruvate, proline and L-glutamine). TGF-β3 (10 ng/mL) was used as a positive control for differentiation while negative control wells were treated with 75 nL DMSO for normalization and calculating EC50 values. Cells were incubated at 37° C. and 5% CO2 for 6 days. To image chondrogenic nodules, the cells were fixed using 4% formaldehyde (Electron Microscopy Sciences), and stained with 2 μg/mL Rhodamine B (Sigma-Aldrich) and 20 μM Nile Red (Sigma-Aldrich) [Johnson K., et. al, A Stem Cell-Based Approach to Cartilage Repair, Science, (2012). 336(6082), 717-721]. The nodules imaged (4 images per well at 4× magnification) by excitation at 531 nm and emission at 625 nm and quantified using the CellInsight CX5 (Thermo Scientific). Number of nodules in each well was normalized to the average of 3 DMSO treated wells on the same plate using Excel (Microsoft Inc.). The normalized averages (fold change over DMSO) of 3 replicate wells for each compound concentration were calculated. Due to solubility limitations of some of the compounds, curve fitting was incomplete leading to inaccurate EC50 determinations.
Using TGF-β3 as a positive control, the concentration of representative compounds required to induce 50% levels of chondrogenesis is reported. In addition, the maximum activity of each compound and the respective dose that each compound reached maximum chondrogenesis activity is reported.

Bounds are passed on as bounds.

As for `CN(C)Cc1cncc(-c2ccc3[nH]nc(-c4cc5cccnc5[nH]4)c3n2)c1` [Compound 265, 1-(5-(3-(1H-Pyrrolo[2,3-b]pyridin-2-yl)-1H-pyrazolo[4,3-b]pyridin-5-yl)pyridin-3-yl)-N,N-dimethylmethanamine], the EC50 in the experiment on IL-6 (THP-1 cells) was 653 nM; in the experiment with SW480 colon cancer cells it was 4210 nM. The Emax in experiment [1] turned out to be 37%.
For `FC1(F)CCN(Cc2cncc(-c3ccc4[nH]nc(-c5cc6cccnc6[nH]5)c4n3)c2)C1` [Compound 278, 5-(5-((3,3-Difluoropyrrolidin-1-yl)methyl)pyridin-3-yl)-3-(1H-pyrrolo[2,3-b]pyridin-2-yl)-1H-pyrazolo[4,3-b]pyridine], the EC50 in the experiment on IL-6 (THP-1 cells) stood at 107 nM; in the experiment on SW480 colon cancer cells, 345 nM; in experiment [1], 100 nM. The Emax in experiment [1] stood at 134%.
For `c1cnc2[nH]c(-c3n[nH]c4ccc(-c5cncnc5)nc34)cc2c1` [Compound 279, 5-(Pyrimidin-5-yl)-3-(1H-pyrrolo[2,3-b]pyridin-2-yl)-1H-pyrazolo[4,3-b]pyridine], the figures for the EC50 in the experiment with IL-6 (THP-1 cells) and in the experiment with SW480 colon cancer cells were 3 nM and more than 10000 nM, respectively. In addition, the inhibition at 10 µM with SW480 colon cancer cells stood at 14.3%. The Emax in experiment [1] turned out to be 43%.
`CN(C)CCNc1cc(F)cc(-c2ccnc3[nH]c(-c4n[nH]c5ccc(-c6ccncc6)nc45)cc23)c1` [Compound 466, N^1-(3-Fluoro-5-(2-(5-(pyridin-4-yl)-1H-pyrazolo[4,3-b]pyridin-3-yl)-1H-pyrrolo[2,3-b]pyridin-4-yl)phenyl)-N^2,N^2-dimethylethane-1,2-diamine]: in the experiment with IL-6 (THP-1 cells), the EC50 is more than 10000 nM and the inhibition at 10 µM was 31%. In the experiment with SW480 colon cancer cells, the EC50 was more than 10000 nM and the inhibition at 10 µM was found to be 16.8%. Further, the Emax in experiment [1] amounted to 17%.
Regarding `CN(C)CCNc1cc(F)cc(-c2ccnc3[nH]c(-c4n[nH]c5ccc(-c6cncc(CNCC7CCCC7)c6)nc45)cc23)c1` [Compound 473, N^1-(3-(2-(5-(5-(((Cyclopentylmethyl)amino)methyl)pyridin-3-yl)-1H-pyrazolo[4,3-b]pyridin-3-yl)-1H-pyrrolo[2,3-b]pyridin-4-yl)-5-fluorophenyl)-N^2,N^2-dimethylethane-1,2-diamine], the results for the EC50 (with IL-6 (THP-1 cells); in the experiment on SW480 colon cancer cells; in experiment [1]) were 6750 nM, 2260 nM and 900 nM, respectively. Moreover, the Emax in experiment [1] was found to be 111%.
With `CN(C)CCOc1cncc(-c2ccc3[nH]nc(-c4cc5c(-c6cccnc6)ccnc5[nH]4)c3n2)c1` [Compound 563, N,N-Dimethyl-2-((5-(3-(4-(pyridin-3-yl)-1H-pyrrolo[2,3-b]pyridin-2-yl)-1H-pyrazolo[4,3-b]pyridin-5-yl)pyridin-3-yl)oxy)ethan-1-amine], in the experiment with IL-6 (THP-1 cells), the EC50 is more than 10000 nM and the inhibition at 10 µM turned out to be 20.3%. Moreover, in the experiment on SW480 colon cancer cells, the EC50 is more than 10000 nM and the inhibition at 10 µM turned out to be 0%. The Emax in experiment [1] was 22%.
With `c1cc(-c2ccnc3[nH]c(-c4n[nH]c5ccc(-c6cncc(OCCN7CCCC7)c6)nc45)cc23)ccn1` [Compound 578, 3-(4-(Pyridin-4-yl)-1H-pyrrolo[2,3-b]pyridin-2-yl)-5-(5-(2-(pyrrolidin-1-yl)ethoxy)pyridin-3-yl)-1H-pyrazolo[4,3-b]pyridine], the EC50 in the experiment on IL-6 (THP-1 cells) and in the experiment with SW480 colon cancer cells was more than 10000 nM each time. For the same compound, the inhibition at 10 µM with IL-6 (THP-1 cells) is 27%; in the experiment on SW480 colon cancer cells, 14.7%. For the same compound, the Emax in experiment [1] came to 40%.
As to `CN1CCN(c2ccnc3[nH]c(-c4n[nH]c5ccc(-c6cn[nH]c6)nc45)cc23)CC1` [Compound 635, 3-(4-(4-Methylpiperazin-1-yl)-1H-pyrrolo[2,3-b]pyridin-2-yl)-5-(1H-pyrazol-4-yl)-1H-pyrazolo[4,3-b]pyridine], in the experiment on IL-6 (THP-1 cells), the EC50 is more than 10000 nM and the inhibition at 10 µM was 8.4%. Besides, in the experiment with SW480 colon cancer cells, the EC50 is more than 10000 nM and the inhibition at 10 µM turned out to be 13.3%. Further, in experiment [1], the EC50 is 300 nM and the Emax worked out at 60%.
On to `O=C(CC1CCNCC1)Nc1cncc(-c2ccc3[nH]nc(-c4cc5c(-c6ccoc6)ccnc5[nH]4)c3n2)c1` [Compound 689, N-(5-(3-(4-(Furan-3-yl)-1H-pyrrolo[2,3-b]pyridin-2-yl)-1H-pyrazolo[4,3-b]pyridin-5-yl)pyridin-3-yl)-2-(piperidin-4-yl)acetamide], for which the EC50 with IL-6 (THP-1 cells) was found to be 3340 nM. Besides, in the experiment with SW480 colon cancer cells, the EC50 was more than 10000 nM and the inhibition at 10 µM came out at 9.2%. In experiment [1], the EC50 is 10 nM and the Emax came to 102%.
In the experiment on IL-6 (THP-1 cells), `c1csc(-c2ccnc3[nH]c(-c4n[nH]c5ccc(-c6cncc(OC7CCNCC7)c6)nc45)cc23)c1` [Compound 704, 5-(5-(Piperidin-4-yloxy)pyridin-3-yl)-3-(4-(thiophen-2-yl)-1H-pyrrolo[2,3-b]pyridin-2-yl)-1H-pyrazolo[4,3-b]pyridine] yielded an EC50 of 106 nM. In the experiment with SW480 colon cancer cells, the EC50 is more than 10000 nM and the inhibition at 10 µM is 49.5%. For the same compound, in experiment [1], the EC50 worked out at 300 nM and the Emax turned out to be 51%.

These data come from US10206909B2, “3-(1H-pyrrolo[2,3-B]pyridin-2-yl)-1H-pyrazolo[4,3-B]pyridines and therapeutic uses thereof” (Samumed, LLC, priority 2015, dated 2019).
